Legend:
rat PGT = rat PGT (Rattus norvegicus (Rat), UniProt Q00910); assay: [3H]PGE2 uptake inhibition in MDCK cells stably transfected with rat PGT (percent inhibition and IC50); type: cell-based; conditions: for Inh (% of Ctl) 0.5 μM: 0.5 μM compound; for Inh (% of Ctl) 0.1 μM: 0.1 μM compound; for Inh (% of Ctl) 2.5 μM: 2.5 μM compound; for Inh (% of Ctl) 5 μM: 5 μM compound; for Inh (% of Ctl) 1 μM: 1 μM compound
Method in brief: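 Rat PGT-transfected MDCK cells, on day 4 after seeding, took up [3H]PGE2 in Waymouth buffer at room temperature, with compound (EtOH stock diluted in buffer) added immediately before tracer. Intracellular radioactivity counted after lysis; percent inhibition versus vehicle, IC50 by fitting y=m1−m1*(m0/(m2+m0)).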

full-thickness wounds = assay: Wound healing: topical application to full-thickness wounds on the back of mice; type: in vivo; conditions: 5 mm full-thickness wounds
Experimental: FIG. 1A-1B. Prostaglandin transporter (PGT) inhibitors accelerate wound healing. […] B. Averaged wound areas of 4 mice, each of them had 2 wounds and received topically applied vehicle Veh1 (2% DMSO+2% cremophor in water) on one wound and T26A on the other. On the wounds of a separate group of 4 mice, vehicle Veh2 (2% EtOH) was applied to one wound and 200 μM PGE2 was applied to the other.
Studies were conducted using compound T26A (Table 1). Two full-thickness wounds with diameter of 5 mm were created on the back of mice symmetrically under the shoulder blades. 50 μL vehicle (2% DMSO+2% cremophor in water) was applied to one wound (FIG. 1A, top panel), and that of 2 mM T26A was applied to the other (FIG. 1A, bottom panel), immediately after surgery and every other day afterwards. […] On the wounds of a separate group of 4 mice, vehicle Veh2 (2% EtOH, yellow) was applied to one wound and 200 μM PGE2 (green) was applied to the other. Results were statistically significant (p<0.05, T26A vs. vehicle).

Row | Compound | Inh (% of Ctl) 0.5 μM (rat PGT; inhibition of [3H]PGE2 uptake) | Inh (% of Ctl) 0.1 μM (rat PGT; inhibition of [3H]PGE2 uptake) | Inh (% of Ctl) 5 μM (rat PGT; inhibition of [3H]PGE2 uptake) | also measured
1 | [N-]=[N+]=NCCOCCOCCNC(=O)c1ccc(Nc2nc(NCCOCCOCCNC(=O)c3ccccc3)nc(Nc3ccc(O)cc3)n2)cc1 [T26A, reference compound] | 72.65 % of Ctl | – | – | IC50 (rat PGT; [3H]PGE2 uptake, MDCK cells stably transfected with rat PGT): 378 nM; vascularization and blood flow in the wound (full-thickness wounds; 2 mM T26A applied topically): increased vascularization and blood flow in the wound; wound healing (wound area) (full-thickness wounds; 50 μL of 2 mM T26A topically immediately after surgery and every other day, 10 day period, vs vehicle (2% DMSO+2% cremophor in water), p<0.05 T26A vs. vehicle): accelerates wound healing
2 | O=C(NCCOCCOCCNc1nc(Nc2ccc(O)cc2)nc(Nc2ccc(C(=O)NCCc3ccccc3)cc2)n1)c1ccccc1 [compound 111] | 59.1 % of Ctl | 52.2 % of Ctl | 93.2 % of Ctl | Inh (% of Ctl) 2.5 μM (rat PGT; inhibition of [3H]PGE2 uptake): 81.5 % of Ctl
3 | O=C(NCCOCCOCCNc1nc(Nc2ccc(O)cc2)nc(Nc2ccc(C(=O)N[C@@H](C(=O)O)c3ccccc3)cc2)n1)c1ccccc1 [compound 79] | 5.4 % of Ctl | – | 54.9 % of Ctl | Inh (% of Ctl) 2.5 μM (rat PGT; inhibition of [3H]PGE2 uptake): 29.2 % of Ctl
4 | COc1ccc(C(=O)NCCOCCOCCNc2nc(Nc3ccccc3)nc(Nc3ccc(O)cc3)n2)cc1 [compound 32] | – | – | – | Inh (% of Ctl) 1 μM (rat PGT; inhibition of [3H]PGE2 uptake): 29.0 % of Ctl; Inh (% of Ctl) 10 μM (rat PGT; 10 μM compound, inhibition of [3H]PGE2 uptake): 71.0 % of Ctl

The next lines start with results.

Row | Inh (% of Ctl) 0.5 μM (rat PGT; inhibition of [3H]PGE2 uptake) | Inh (% of Ctl) 0.1 μM (rat PGT; inhibition of [3H]PGE2 uptake) | Inh (% of Ctl) 5 μM (rat PGT; inhibition of [3H]PGE2 uptake) | Compound | also measured
5 | 36.6 % of Ctl | 12.0 % of Ctl | – | CN(c1ccc(O)cc1)c1nc(NCCOCCOCCNC(=O)c2ccccc2)nc(Nc2ccc(C(=O)NCc3ccccc3)cc2)n1 [compound 123] | –
6 | 2.6 % of Ctl | – | 35.2 % of Ctl | O=C(NCCOCCOCCNc1nc(Nc2ccc(O)cc2)nc(Nc2ccc(CO)cc2)n1)c1ccccc1 [compound 26] | –
7 | 15.0 % of Ctl | – | 16.6 % of Ctl | CN(C)C(=O)c1ccc(Nc2nc(NCCOCCOCCNC(=O)c3ccccc3)nc(Nc3ccc(O)cc3)n2)cc1 [compound 15] | –
8 | 20.1 % of Ctl | 8.4 % of Ctl | – | O=C(NCCOCCOCCNc1nc(Nc2ccc(C(=O)NCc3ccc(F)cc3)cc2)nc(Nc2ccc3[nH]cnc3c2)n1)c1ccccc1 [compound 142] | Inh (% of Ctl) 1 μM (rat PGT; inhibition of [3H]PGE2 uptake): 39.2 % of Ctl

Source: patent US8952150B2, “Prostaglandin transporter inhibitors and uses thereof” (Albert Einstein College of Medicine of Yeshiva University, priority 2009, dated 2015)
